Earlier results, collected in patent publication US20260207579A1, “VITAMIN B SUPPLEMENTATION TO TREAT PITUITARY PARS INTERMEDIA DYSFUNCTION (PPID) IN EQUIDS” (MARS INCORPORATED, priority 2022, published 2026).
Where a name gives a salt, the structure may show the parent alone.

Columns and labels:
[1] = system: horses
[2] = system: PPID
[3] = system: dementia; details: humans with dementia and concurrent vitamin B12 deficiency
[4] = 3 g/day, mares, mean BW of ~500 kg
[5] = system: brain cells; details: species other than the horse
[6] = system: adult Thoroughbred horses; details: 3 g/day for 6 weeks, exercising adult Thoroughbred horses likely around 500 kg
[7] = 5 g/day, horses
[8] = system: dopamine production; details: over the long term, mice

N[C@@H](Cc1c[nH]c2ccccc12)C(=O)O [Tryptophan, tryptophan]
behavioural effects [1]: both excitatory and sedative effects | toxicity ([1]; high doses): hemolytic anemia and symptoms of respiratory distress

CCCN1C[C@H](CSC)C[C@@H]2c3cccc4[nH]cc(c34)C[C@H]21 [pergolide mesylate]
clinical outcome in PPID [2]: clinical improvement

vitamin B12
effect of supplementation [3]: beneficial

O=C(O)c1cccnc1 [NA, nicotinic acid]
bioavailability of NAD+ precursors in the follicular fluid [4]: increased | plasma concentrations of NAD+ precursors [4]: no apparent increase | intracellular NAD+ levels [5]: increase

O=C(O)c1cccnc1 [niacin]
adverse effects [6]: no measured adverse effects | benefits as putative ergogenic aid [6]: no apparent benefits | plasma and urine concentrations of NAD+ precursors [7]: increases

NC(=O)c1ccc[n+]([C@@H]2O[C@H](CO)[C@@H](O)[C@H]2O)c1 [nicotinamide riboside]
dopamine production [8]: may downregulate dopamine production
